{
  "source": "patent US20140155415A1",
  "about": "“BENZ[…] BENZODIOXINE COMPOUNDS THAT INTERACT WITH G[…] FOR THE TREATMENT OF DIABETES” (priority 2011, published 2014)",
  "data": [
    {"target": "T1, GK-GKRP (interaction between glucokinase and glucokinase regulatory protein) (Homo sapiens, UniProt Q14397)", "T1 construct": "made in house; host or cells: GKRP: baculovirus system", "T1 sequence (Q14397 1-625)": "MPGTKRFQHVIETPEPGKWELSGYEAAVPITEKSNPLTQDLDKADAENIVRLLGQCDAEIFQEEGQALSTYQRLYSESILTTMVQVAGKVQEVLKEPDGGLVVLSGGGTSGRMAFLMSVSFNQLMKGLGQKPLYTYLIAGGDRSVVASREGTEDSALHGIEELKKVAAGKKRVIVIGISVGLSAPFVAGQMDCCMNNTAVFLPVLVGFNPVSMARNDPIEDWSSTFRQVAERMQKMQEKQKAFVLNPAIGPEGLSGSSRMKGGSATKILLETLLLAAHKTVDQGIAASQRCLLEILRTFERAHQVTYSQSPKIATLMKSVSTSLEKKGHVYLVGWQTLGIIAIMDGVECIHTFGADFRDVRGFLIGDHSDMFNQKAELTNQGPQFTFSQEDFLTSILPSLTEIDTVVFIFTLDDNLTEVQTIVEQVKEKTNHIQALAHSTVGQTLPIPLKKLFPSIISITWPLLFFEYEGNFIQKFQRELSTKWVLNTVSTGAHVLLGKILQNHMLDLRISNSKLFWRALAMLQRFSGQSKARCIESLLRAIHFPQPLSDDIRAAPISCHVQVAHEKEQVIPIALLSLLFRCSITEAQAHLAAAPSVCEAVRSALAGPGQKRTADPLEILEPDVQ", "experiment": "GK-GKRP Binding Assay (Binding), AlphaScreen", "conditions": "not given", "description": "(§1) GK-GKRP Binding Assay Protocol (Binding)\n(§2) This assay is used to directly measure the interaction between glucokinase (GK) and glucokinase regulatory protein (GKRP). Begin by preparing the following solutions. Assay Buffer: 20 mM Tris, pH 7.5/0.05% BSA/1 mM DTT/1 μM sorbitol-6-phosphate. […] Combine the following reagents in a white 96-well half area plate. Pipette 14 μl of the diluted avi-tagged GKRP into each well. Add 1 μl of compound to be tested and incubate at room temperature for 20 minutes. After 20 minutes, add 5 μl of assay buffer containing 6 nM GK-fluorescein. […] Incubate in a dark room for 2 hours at room temperature. After 2 hours read the plate using an Envision plate reader (Perkin Elmer, Waltham Mass.).\n(§3) Recombinant human glucokinase (hepatic) was purified and formulated in 50 mM Tris (pH 7.5), 150 mM NaCl and 20 mM glucose previous to labeling with fluorescein. […] Unreacted dye was removed by extensive dialysis into the final formulation buffer: 25 mM Tris (pH 7.2), 150 mM NaCl, 10% glycerol and 2 mM DTT. The human glucokinase regulatory protein construct was designed with a C-terminal avitag and was expressed in a baculovirus system. Purified GKRP was incubated overnight with recombinant biotin ligase in the presence of D-biotin, ATP and MgCl2. GKRP was isolated from reaction components by chromatography on a Superdex 200 size exclusion column into: 50 mM HEPES, 150 mM NaCl and 5 mM DTT. […] Proteins were quantitated according to their calculated molar extinction coefficients at A280 and were stored at −80° C.\n(§4) In the Examples, the assays are referred to as “LCMS/MS” or “Binding.”", "units": {"IC50": "nM"}, "values": [
      {"smiles": "COc1ccc(S(=O)(=O)NC(c2cc3ccccc3s2)c2ccccc2SC)cc1OC", "note": "(racemic) [Example 74]", "IC50": 2700},
      {"smiles": "O=S(=O)(N[C@@H](c1cc2ccccc2s1)c1ccccc1Cl)c1ccc2c(c1)OCC(O)CO2", "note": "(mixture of isomers) [Example 77, N—((R)-1-Benzothiophen-2-yl(2-chlorophenyl)methyl)-3-hydroxy-3,4-dihydro-2H-1,5-benzodioxepine-7-sulfonamide]", "IC50": 97}
    ]},
    {"target": "T1, GK-GKRP (interaction between glucokinase and glucokinase regulatory protein)", "experiment": "GK-GKRP Binding Assay (Binding), AlphaScreen", "conditions": "avi-tagged GKRP, GK-fluorescein, AlphaScreen beads, 1 μM sorbitol-6-phosphate; read-out: GK-GKRP IC50 (Binding)", "description": "as §1, §2, §3, §4", "units": {"IC50": "nM"}, "values": [
      {"smiles": "CSc1ccccc1[C@H](NS(=O)(=O)c1ccc2c(c1)OCCCO2)c1nc2cccnc2s1", "note": "(single isomer, unassigned) [Example 65 Peak #1]", "IC50": 900},
      {"smiles": "C[C@](O)(c1ccnc(-c2cccc3cc([C@H](NS(=O)(=O)c4ccc5c(c4)OCCCO5)c4ccccc4Cl)sc23)c1)C(F)(F)F", "note": "[Example 85, N—((R)-(2-Chlorophenyl)(7-(4-((1S)-2,2,2-trifluoro-1-hydroxy-1-methylethyl)-2-pyridinyl)-1-benzothiophen-2-yl)methyl)-3,4-dihydro-2H-1,5-benzodioxepine-7-sulfonamide]", "IC50": 23},
      {"smiles": "O=S(=O)(N[C@H](c1nc2cccnc2s1)c1ccccc1Cl)c1ccc2c(c1)OCCCO2", "note": "(single isomer, unassigned) [Example 68 Peak #1]", "IC50": 2000},
      {"smiles": "O=S(=O)(NC(c1ccccc1)c1cc2ccnc(Cl)c2s1)c1ccc2c(c1)OCCCO2", "note": "(racemic) [Example 80, N-((7-Chlorothieno[2,3-c]pyridin-2-yl)(phenyl)methyl)-3,4-dihydro-2H-1,5-benzodioxepine-7-sulfonamide]", "IC50": 1100},
      {"smiles": "COc1ccc(S(=O)(=O)N[C@@H](c2cc3cccc(-c4cc([C@@](C)(O)C(F)(F)F)ccn4)c3s2)c2ccccc2Cl)cc1OC", "note": "[Example 84, N—((R)-(2-Chlorophenyl)(7-(4-((1R)-2,2,2-trifluoro-1-hydroxy-1-methylethyl)-2-pyridinyl)-1-benzothiophen-2-yl)methyl)-3,4-dimethoxybenzenesulfonamide]", "IC50": 276},
      {"smiles": "C[C@@](O)(c1ccnc(-c2cccc3cc([C@H](NS(=O)(=O)c4ccc5c(c4)OCCCO5)c4ccccc4Cl)sc23)c1)C(F)(F)F", "note": "[Example 83, N—((R)-(2-Chlorophenyl)(7-(4-((1R)-2,2,2-trifluoro-1-hydroxy-1-methylethyl)-2-pyridinyl)-1-benzothiophen-2-yl)methyl)-3,4-dihydro-2H-1,5-benzodioxepine-7-sulfonamide]", "IC50": 38},
      {"smiles": "COc1cccnc1C(NS(=O)(=O)c1ccc2c(c1)OCCCO2)c1nc2cccnc2s1", "note": "(racemic) [Example 69, N-((3-methoxy-2-pyridinyl)([1,3]thiazolo[5,4-b]pyridin-2-yl)methyl)-3,4-dihydro-2H-1,5-benzodioxepine-7-sulfonamide]", "IC50": 1500},
      {"smiles": "O=S(=O)(N[C@@H](c1ccccc1)c1cc2cccc(-c3ccccn3)c2s1)c1ccc2c(c1)OCCCO2", "note": "(single isomer, unassigned) [Example 71 Peak #1]", "IC50": 790},
      {"smiles": "COc1ccc(S(=O)(=O)N[C@@H](c2cc3cccc(-c4cc(C(O)(C(F)(F)F)C(F)(F)F)ccn4)c3s2)c2ccccc2Cl)cc1OC", "note": "[Example 82, N—((R)-(2-Chlorophenyl)(7-(4-(2,2,2-trifluoro-1-hydroxy-1-(trifluoromethyl)ethyl)-2-pyridinyl)-1-benzothiophen-2-yl)methyl)-3,4-dimethoxybenzenesulfonamide]", "IC50": 907},
      {"smiles": "Nc1cc(C(NS(=O)(=O)c2ccc3c(c2)OCCCO3)c2cc3ccccc3o2)ccn1", "note": "(stereo not drawn) [Example 87, N-((2-Amino-4-pyridinyl)(1-benzofuran-2-yl)methyl)-3,4-dihydro-2H-1,5-benzodioxepine-7-sulfonamide]", "IC50": 4880},
      {"smiles": "COc1ccccc1[C@H](NS(=O)(=O)c1ccc2c(c1)OCCCO2)c1nc2cccnc2s1", "note": "(single isomer, unassigned) [Example 67 Peak #1]", "IC50": 2800},
      {"smiles": "Cc1cccnc1[C@H](NS(=O)(=O)c1ccc2c(c1)OCCCO2)c1cc2ccccc2o1", "note": "(single isomer, unassigned) [Example 26 Peak #1]", "IC50": "> 33000"},
      {"smiles": "O=S(=O)(N[C@@H](c1cc2ccccc2s1)c1ccccc1Cl)c1ccc2c(c1)OCC(F)CO2", "note": "(mixture of isomers) [Example 78, N—((R)-1-Benzothiophen-2-yl(2-chlorophenyl)methyl)-3-fluoro-3,4-dihydro-2H-1,5-benzodioxepine-7-sulfonamide]", "IC50": 47},
      {"smiles": "COc1ccc(S(=O)(=O)N[C@@H](c2cc3cccc(-c4cc([C@](C)(O)C(F)(F)F)ccn4)c3s2)c2ccccc2Cl)cc1OC", "note": "[Example 86, N—((R)-(2-Chlorophenyl)(7-(4-((1S)-2,2,2-trifluoro-1-hydroxy-1-methylethyl)-2-pyridinyl)-1-benzothiophen-2-yl)methyl)-3,4-dimethoxybenzenesulfonamide]", "IC50": 72},
      {"smiles": "O=S(=O)(N[C@@H](c1cc2cccc(-c3cc(C(O)(C(F)(F)F)C(F)(F)F)ccn3)c2s1)c1ccccc1Cl)c1ccc2c(c1)OCCCO2", "note": "[Example 81, N—((R)-(2-Chlorophenyl)(7-(4-(2,2,2-trifluoro-1-hydroxy-1-(trifluoromethyl)ethyl)-2-pyridinyl)-1-benzothiophen-2-yl)methyl)-3,4-dihydro-2H-1,5-benzodioxepine-7-sulfonamide]", "IC50": 87},
      {"smiles": "O=S(=O)(N[C@@H](c1cc2ccccc2s1)c1ccccc1Cl)c1ccc2c(c1)OCC(F)(F)CO2", "note": "[Example 76, N—((R)-1-Benzothiophen-2-yl(2-chlorophenyl)methyl)-3,3-difluoro-3,4-dihydro-2H-1,5-benzodioxepine-7-sulfonamide]", "IC50": 620},
      {"smiles": "Nc1cccc(C(NS(=O)(=O)c2ccc3c(c2)OCCCO3)c2cc3ccccc3o2)n1", "note": "(racemic) [Example 79, N-((6-amino-2-pyridinyl)(1-benzofuran-2-yl)methyl)-3,4-dihydro-2H-1,5-benzodioxepine-7-sulfonamide]", "IC50": 98}
    ]},
    {"target": "T2, GK-GKRP (glucokinase / glucokinase regulatory protein) (Homo sapiens, UniProt Q14397)", "T2 sequence (Q14397 1-625)": "T1 sequence (Q14397 1-625)", "experiment": "GKRP LC MS/MS Biochemical Assay (LCMS/MS)", "conditions": "formation of 13C-glucose-6-phosphate from 13C-glucose by LC MS/MS, human His-hepatic GK, fructose-6-phosphate", "description": "GKRP LC MS/MS Biochemical Assay (LCMS/MS)\nThis assay is used to directly measure the formation of ^13C-glucose-6-phosphate from ^13C-glucose by LC MS/MS. Begin by preparing the following solutions: Compound Buffer (CB): 50 mM Tris, pH 7.5/4 mM MgCl2/6% DMSO/fresh 10 mM DTT from 1M frozen stock. Enzyme Buffer (EB): 50 mM Tris, pH 7.5/4 mM MgCl2/6% DMSO/fresh 0.1% BSA/fresh 0.01% Brij-35 (10% BSA and 1% Brij-35 stock). GK (Glucokinase) Working Stock (5×): Dilute human His-hepatic GK to 30 nM in EB buffer. […] Seal the plate and incubate for 30 minutes at room temperature while mixing. After 30 minutes add 10 μl of GK Working Stock (5×). Re-seal the plate and incubate for another 30 minutes at room temperature while mixing. After the second 30 minutes, stop the reaction by the addition of 50 μl of 100% acetonitrile, seal, and mix for 5-10 minutes. Run 10 μl of this sample through the LC MS/MS (API 3200, Applied Biosystems, Carlsbad, Calif.). […]\nas §4", "units": {"EC50": "nM"}, "values": [
      {"smiles": "O=S(=O)(NC(c1cccc(F)c1)c1cc2ccccc2o1)c1ccc2c(c1)OCCCO2", "note": "(racemic) [Example 24, N-(1-benzofuran-2-yl(3-fluorophenyl)methyl)-3,4-dihydro-2H-1,5-benzodioxepine-7-sulfonamide]", "EC50": 1800},
      {"smiles": "Cc1ccccc1C(NS(=O)(=O)c1ccc2c(c1)OCCCO2)c1cc2ccccc2o1", "note": "(racemic) [Example 2, N-(1-benzofuran-2-yl(2-methylphenyl)methyl)-3,4-dihydro-2H-1,5-benzodioxepine-7-sulfonamide]", "EC50": 110},
      {"smiles": "Cc1ccccc1[C@@H](NS(=O)(=O)c1ccc2c(c1)OCCCO2)c1cc2ccccc2o1", "note": "(single isomer, unassigned) [Example 2 Peak #2]", "EC50": 43},
      {"smiles": "O=S(=O)(NC(c1cc2ccccc2o1)c1ccccc1CCO)c1ccc2c(c1)OCCCO2", "note": "(racemic) [Example 16, N-(1-benzofuran-2-yl(2-(2-hydroxyethyl)phenyl)methyl)-3,4-dihydro-2H-1,5-benzodioxepine-7-sulfonamide]", "EC50": 3200},
      {"smiles": "Cc1ccccc1[C@H](NS(=O)(=O)c1ccc2c(c1)OCCCO2)c1cc2ccccc2o1", "note": "(single isomer, unassigned) [Example 2 Peak #1]", "EC50": "> 50000"}
    ]}
  ]
}
